Data reported in publication PMC10831071, “Reaction hijacking inhibition of Plasmodium falciparum asparagine tRNA synthetase” (Nature Communications, 2024).
Values after ≈ are worked out from the molar mass of the structure shown. Values joined by “and” are separate entries in the source; they are usually repeats but may differ in a detail not shown here. Equal values may be shown once. Read-outs that look alike come from different tables or passages of the source.

Columns and labels:
P. falciparum (3D7) = experiment: Activity against P. falciparum 3D7 cultures, 72 h (PfLDH growth inhibition / flow cytometry); format: cell-based, Plasmodium falciparum
Procedure: Antimalarial activity against P. falciparum 3D7 was tested by TCGLS, Kolkata, India, using the lactate dehydrogenase (PfLDH) growth inhibition assay. […] Plates were shaken to ensure mixing and were placed in the dark at 21 °C for 20 min. […] P. falciparum strain (3D7) was obtained from BEI Resources.
(§1) Viability was assessed in the second cycle by flow cytometry, following labeling with 2 μM Syto-61 (Thermo Fisher Scientific)[48],[49]. Viability represents the parasitemia normalized to untreated and “kill” controls that were treated with 2 μM dihydroartemisinin (DHA; Sigma-Aldrich) for 48–72 h. For drug pulse assays, tightly synchronized Cam3.II-rev[50] parasites (1–1.5% parasitemia, 0.2% final hematocrit) were added to the plates and incubated for 6 h. Drugs were removed and the parasitemia assessed in the trophozoite stage of the next cycle.

[1] = test system: P. falciparum Dd2-B2 clone; experiment: microbe, parasite or virus in culture; format: cell-based, Plasmodium falciparum; details: Plasmodium falciparum, DD2
Source text: Wells were monitored daily by smear during the first 7 days to ensure parasite clearance, during which media was changed daily. […] Whole-genome sequencing analysis employed MiSeq data from libraries of 2 × 300 bp paired end reads.

[2] = test system: Dd2 parasites selected with OSM-S-106; experiment: Sensitivity of ramp-up OSM-S-106-selected Dd2 clones; format: cell-based; details: Plasmodium falciparum
[3] = test system: P. falciparum Cam3.II-rev; experiment: Drug pulse (6 h) viability assay; format: cell-based, Plasmodium falciparum
Procedure: as §1

[4] = test system: control YFP line (TetR/DOZI module); experiment: OSM-S-106 susceptibility assay, control YFP line; format: cell-based, Plasmodium falciparum; details: YFP-aptamer control line
Procedure: Synchronous ring-stage PfAsnRS, PfAlaRS, PfGlyRS, PfNT4, PfGDH3, and PfCA cKD parasites, as well as a control line expressing a fluorescent protein under the control of the TetR/DOZI module, were maintained in 0.5 µM aTc to achieve wild-type protein levels, and 0.001 or 0.0015 µM aTc for knockdown of PfAsnRS, PfAlaRS and PfGlyRS, and no aTc for knockdown of PfNT4, PfGDH3 and PfCA. DMSO- and dihydroartemisinin-treatment (0.5 µM) served as reference controls.

PfAsnRS = PfAsnRS (Plasmodium falciparum, UniProt O96198); experiment: biochemical
HsAsnRS = target: T1, HsAsnRS (Homo sapiens, UniProt O43776); experiment: ATP consumption assay (Kinase-Glo), HsAsnRS; format: biochemical; details: for ATP consumption: HsAsnRS, normalised to 1 (Fig 3C)
T1 construct: HsAsnRS (residues M1–P548) and CDHsAsnRS (residues A98–P548); His6 (N, cleaved yes); made in house; host or cells: E. coli BL21 (DE3), pET11a
T1 sequence (O43776 1-548): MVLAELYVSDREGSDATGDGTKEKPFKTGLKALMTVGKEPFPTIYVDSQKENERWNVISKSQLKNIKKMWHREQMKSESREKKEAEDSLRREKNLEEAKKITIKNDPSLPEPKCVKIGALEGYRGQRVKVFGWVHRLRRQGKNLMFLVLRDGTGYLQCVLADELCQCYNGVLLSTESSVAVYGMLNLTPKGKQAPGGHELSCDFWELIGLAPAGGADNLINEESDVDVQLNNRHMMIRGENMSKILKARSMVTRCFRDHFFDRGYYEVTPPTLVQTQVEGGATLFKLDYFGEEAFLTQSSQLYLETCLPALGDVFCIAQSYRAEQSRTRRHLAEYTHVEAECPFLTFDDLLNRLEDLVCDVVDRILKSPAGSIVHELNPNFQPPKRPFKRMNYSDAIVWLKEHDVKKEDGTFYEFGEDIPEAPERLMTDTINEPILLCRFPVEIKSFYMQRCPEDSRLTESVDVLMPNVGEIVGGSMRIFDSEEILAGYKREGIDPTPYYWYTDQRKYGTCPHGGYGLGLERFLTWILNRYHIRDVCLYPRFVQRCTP

Solubility = format: physicochemical

Chain of PfAsnRS (O96198 entry or part of it): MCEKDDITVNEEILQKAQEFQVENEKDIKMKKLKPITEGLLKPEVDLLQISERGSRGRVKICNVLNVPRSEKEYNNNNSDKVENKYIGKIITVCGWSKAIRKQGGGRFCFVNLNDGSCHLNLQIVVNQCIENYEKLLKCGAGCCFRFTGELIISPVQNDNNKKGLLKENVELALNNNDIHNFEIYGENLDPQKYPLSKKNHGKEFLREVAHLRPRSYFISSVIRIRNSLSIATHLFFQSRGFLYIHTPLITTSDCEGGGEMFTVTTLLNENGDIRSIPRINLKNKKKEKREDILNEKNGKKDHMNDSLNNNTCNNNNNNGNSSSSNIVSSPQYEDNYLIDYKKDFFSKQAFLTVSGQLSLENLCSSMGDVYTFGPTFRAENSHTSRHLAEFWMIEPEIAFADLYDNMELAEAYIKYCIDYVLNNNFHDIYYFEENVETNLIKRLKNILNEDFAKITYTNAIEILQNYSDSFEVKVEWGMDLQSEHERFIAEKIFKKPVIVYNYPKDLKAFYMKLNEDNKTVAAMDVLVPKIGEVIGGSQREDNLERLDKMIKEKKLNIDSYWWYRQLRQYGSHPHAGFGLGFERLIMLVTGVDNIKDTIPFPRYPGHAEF

Nc1ncnc2cc(-c3cccc(S(N)(=O)=O)c3)sc12 [OSM-S-106]
IC50 (P. falciparum (3D7); Plasmodium falciparum, 3D7, 72 h, read-out: Pf3D7 IC50(72 h), 72 h, mean ± SD or duplicate values): 58 ± 17 nM
IC50 (P. falciparum (3D7); Plasmodium falciparum, 3D7, read-out: amount needed to kill parasite cultures): ~60 nM
IC50 (P. falciparum (3D7); read-out: Pf3D7 IC50 (72h), individual biological repeats (source data of Table 1)): 61.1 nM and 52.7 nM and 87.1 nM and 79.6 nM and 50.5 nM and 48.8 nM and 37.9 nM and 43.7 nM
IC50 [1]: 88.9 nM
IC90 [1]: 169 nM
IC50 ([2]; DD2, parasite Dd2-B2-2 (parent)): 79 ± 12 nM
IC50 ([2]; DD2, parasite Dd2-B2-3 (parent)): 80 nM
IC50 ([2]; DD2, parasite Dd2-OSM-2A6): 700 nM
IC50 ([2]; DD2, parasite Dd2-OSM-2A9): 320 nM
IC50 ([2]; DD2, parasite Dd2-OSM-2B2): 700 nM
IC50 ([2]; DD2, parasite Dd2-OSM-2D6): 780 nM
IC50 ([2]; DD2, parasite Dd2-OSM-3E5): 160 nM
IC50 ([2]; DD2, parasite Dd2-OSM-3H7): 220 nM
Viability ([3]; 78.1 nM, 6 h pulse, individual experiments, 0 nM = 100): 93.5356 and 88.7263
Viability ([3]; 156.3 nM, 6 h pulse, individual experiments, 0 nM = 100): 81.4036 and 83.8337
Viability ([3]; 312.5 nM, 6 h pulse, individual experiments, 0 nM = 100): 81.9846 and 75.9519
Viability ([3]; 625 nM, 6 h pulse, individual experiments, 0 nM = 100): 76.0359 and 75.5937
Viability ([3]; 1250 nM, 6 h pulse, individual experiments, 0 nM = 100): 77.505 and 78.8039
Viability ([3]; 2500 nM, 6 h pulse, individual experiments, 0 nM = 100): 63.2365 and 57.9681
Viability ([3]; 5000 nM, 6 h pulse, individual experiments, 0 nM = 100): 58.8326 and 46.673 and 10.7308
Viability ([3]; 10000 nM, 6 h pulse, individual experiments, 0 nM = 100): 6.448 and 2.352 and 1.857
Viability ([3]; 20000 nM, 6 h pulse, individual experiments, 0 nM = 100): 0 and 0.3604 and 0.5288
Viability ([3]; 40000 nM, 6 h pulse, individual experiments, 0 nM = 100): 1.032 and 0 (2×)
viability at 0.0781 µM ([3]; Plasmodium falciparum, 6 h, 78.1 nM, 6 h pulse, individual experiments, 0 nM = 100): 77.5%
viability at 0.1563 µM ([3]; Plasmodium falciparum, 6 h, 156.3 nM, 6 h pulse, individual experiments, 0 nM = 100): 80.2%
viability at 0.3125 µM ([3]; Plasmodium falciparum, 6 h, 312.5 nM, 6 h pulse, individual experiments, 0 nM = 100): 81.3%
viability at 0.625 µM ([3]; Plasmodium falciparum, 6 h, 625 nM, 6 h pulse, individual experiments, 0 nM = 100): 79.9%
viability at 1.25 µM ([3]; Plasmodium falciparum, 6 h, 1250 nM, 6 h pulse, individual experiments, 0 nM = 100): 79.8%
viability at […] ([3]; Plasmodium falciparum, 6 h, 2500 nM, 6 h pulse, individual experiments, 0 nM = 100): 77.1%
IC50 ([3]; Plasmodium falciparum, 6 h, read-out: IC50 (Viability)): 4700 nM
Growth ([4]; 3.125 nM OSM-S-106, 500 nM aTc): 98.4708 and 116.919 and 104.321
Growth ([4]; 3.125 nM OSM-S-106, no aTc): 98.4734 and 92.161 and 100.93
Growth ([4]; 6.25 nM OSM-S-106, 500 nM aTc): 96.7408 and 93.8415 and 101.366
Growth ([4]; 6.25 nM OSM-S-106, no aTc): 92.1288 and 90.7869 and 100.211
Growth ([4]; 12.5 nM OSM-S-106, 500 nM aTc): 103.105 and 71.6867 and 103.065
Growth ([4]; 12.5 nM OSM-S-106, no aTc): 102.145 and 82.3472 and 97.2955
Growth ([4]; 25 nM OSM-S-106, 500 nM aTc): 96.4937 and 50.4813 and 93.5
Growth ([4]; 25 nM OSM-S-106, no aTc): 103.53 and 55.9318 and 95.9432
ATP consumption (PfAsnRS; 0.1 μM OSM-S-106, PfAsnRS + tRNA, 0 μM = 100, 0.1 µM): 82.5658 and 96.0922
ATP consumption (PfAsnRS; 0.1 μM OSM-S-106, PfAsnRS - tRNA, 0 μM = 100, 0.1 µM): 102.037 and 98.4072 and 106.756 and 97.2403 and 101.662
ATP consumption (PfAsnRS; 0.1 μM OSM-S-106, PfAsnRS, normalised to 1 (Fig 3C), 0.1 µM): 0.9643 and 0.9875
ATP consumption (PfAsnRS; 1 μM OSM-S-106, PfAsnRS + tRNA, 0 μM = 100, 1 µM): 57.1862 and 87.1941
ATP consumption (PfAsnRS; 1 μM OSM-S-106, PfAsnRS - tRNA, 0 μM = 100, 1 µM): 113.687 and 120.029 and 93.4234 and 93.1495 and 103.899
ATP consumption (PfAsnRS; 1 μM OSM-S-106, PfAsnRS, normalised to 1 (Fig 3C), 1 µM): 0.7028 and 0.7102
ATP consumption (PfAsnRS; 3 μM OSM-S-106, PfAsnRS, normalised to 1 (Fig 3C), 3 µM): 0.5774 and 0.6156
ATP consumption (PfAsnRS; 5 μM OSM-S-106, PfAsnRS + tRNA, 0 μM = 100, 5 µM): 38.7619 and 47.6862
ATP consumption (PfAsnRS; 5 μM OSM-S-106, PfAsnRS - tRNA, 0 μM = 100, 5 µM): 106.249 and 114.714 and 99.7656 and 89.6731 and 97.6484
ATP consumption (PfAsnRS; 10 μM OSM-S-106, PfAsnRS + tRNA, 0 μM = 100, 10 µM): 33.3781 and 42.1739
ATP consumption (PfAsnRS; 10 μM OSM-S-106, PfAsnRS - tRNA, 0 μM = 100, 10 µM): 118.679 and 119.307 and 117.388 and 114.394 and 95.1041 and 101.36
ATP consumption (PfAsnRS; 10 μM OSM-S-106, PfAsnRS, normalised to 1 (Fig 3C), 10 µM): 0.4326 and 0.4705
ATP consumption (PfAsnRS; 25 μM OSM-S-106, PfAsnRS + tRNA, 0 μM = 100, 25 µM): 31.8347 and 29.629
ATP consumption (PfAsnRS; 25 μM OSM-S-106, PfAsnRS - tRNA, 0 μM = 100, 25 µM): 125.392 and 106.541 and 117.104 and 104.95 and 102.467 and 90.9619
ATP consumption (PfAsnRS; 30 μM OSM-S-106, PfAsnRS, normalised to 1 (Fig 3C), 30 µM): 0.3585 and 0.3795
ATP consumption (PfAsnRS; 100 μM OSM-S-106, PfAsnRS + tRNA, 0 μM = 100, 100 µM): 21.4279 and 12.1476
ATP consumption (PfAsnRS; 100 μM OSM-S-106, PfAsnRS - tRNA, 0 μM = 100, 100 µM): 100.893 and 101.422 and 99.2831 and 94.8016 and 84.8517
ATP consumption (PfAsnRS; 100 μM OSM-S-106, PfAsnRS, normalised to 1 (Fig 3C), 100 µM): 0.3092 and 0.3431
ATP consumption (PfAsnRS; 200 μM OSM-S-106, PfAsnRS - tRNA, 0 μM = 100, 200 µM): 112.741 and 109.993 and 91.5345 and 106.529 and 72.1689
ATP consumption (PfAsnRS; 200 μM OSM-S-106, PfAsnRS, normalised to 1 (Fig 3C), 200 µM): 0.2731 and 0.3306
ATP consumption (PfAsnRS; 500 μM OSM-S-106, PfAsnRS - tRNA, 0 μM = 100, 500 µM): 107.256 and 120.979 and 131.723 and 125.52 and 90.3898 and 80.1015
IC50 (PfAsnRS; IC50, ATP consumption, 0.05 μM PfAsnRS, E. coli tRNA present, 37 °C, 1 h (Fig. 3C, D)): 6200 nM
IC50 (PfAsnRS; IC50, ATP consumption, minus E. coli tRNA, 0.5 μM enzyme, […] (Fig. 3B)): > 500000 nM
IC50 (PfAsnRS; IC50, ATP consumption, plus E. coli tRNA, 0.5 μM enzyme, 37 °C, […] (Fig. 3B)): 7300 nM
IC50 (PfAsnRS; concentration needed to induce 50% inhibition of ATP consumption): ~1000 nM
ATP consumption (HsAsnRS; 0.1 μM OSM-S-106): 0.9809 and 0.9695 and 0.9878
IC50 (HsAsnRS; 0.2 μM HsAsnRS, E. coli tRNA present, 37 °C, 1 h (Fig. 3C, D)): > 100000 nM
ATP consumption (HsAsnRS; 1 μM OSM-S-106): 0.993 and 0.9826 and 1
ATP consumption (HsAsnRS; 3 μM OSM-S-106): 0.9931 and 0.9791 and 0.9532
ATP consumption (HsAsnRS; 10 μM OSM-S-106): 0.9721 and 1 and 0.9745
ATP consumption (HsAsnRS; 30 μM OSM-S-106): 0.9297 and 0.9566 and 0.9615
ATP consumption (HsAsnRS; 100 μM OSM-S-106): 0.955 and 0.928 and 0.9784
ATP consumption (HsAsnRS; 200 μM OSM-S-106): 0.929 and 0.9898
solubility (Solubility; pH 2, simulated gastric fluid): 50 to 100 µg/mL (≈ 163 to 326 µM)
solubility (Solubility; pH 6.5, aqueous buffer): 12.5 to 25 µg/mL (≈ 40.8 to 81.6 µM)
